The text below walks through data of patent US6262064A, “Octahydrobenzo[f]quinoline-based receptor agonists and antagonists” (priority 1999, dated 2001).

Read-outs that look alike come from different tables or passages of the source.

Experiment [1] deals with T1, 5HT2 serotonin receptor (Rattus norvegicus, UniProt P14842).
T1 construct: rat cortical membranes; from tissue; host or cells: rat cortex membranes
Description: Serotonin (5HT2) binding assay ([3H]Ketanserin). As for the experimental part:
The final ligand concentration was 1.0 nM.

The target in experiment [2] is T2, D2 dopamine receptor (Rattus norvegicus, UniProt P61169).
T2 construct: rat striatal membranes; from tissue; host or cells: rat striatum membranes
Description: Dopamine D2 binding assay ([3H]Sulpiride). The note with it: for dopamine receptor binding affinity / selectivity for the D2 over the D1 dopamine receptor: in words. As to the method:
The final ligand concentration was 0.5 nM.

For experiment [3], the target named is T3, D2 receptor (Rattus norvegicus, UniProt P61169).
T3 construct: expressed in transfected cells
Description: D2 receptor agonist evaluation (membrane binding with and without Gpp(NH)p). The note with it: for D2 agonist/antagonist assessment / effect of GTP on D2 receptor binding: in words. As to the method:
To determine the D2, D3 or D4 receptor selectivity, competition binding assays were performed using membranes from fibroblast cell lines transfected with D2444 (rat), D3 (human) or D4 (rat) receptors. All cell lines were maintained in Dulbecco's modified Eagle's media (DMEM) supplemented with 10 % fetal bovine serum at 37° C. with 5% CO2. Transfected cells were maintained in DMEM containing 300 μg/mL of the antibiotic G418 (Gibco).
To determine whether or not compounds of this invention were D2 receptor agonists, a membrane binding assay, utilizing the D2 cell line described in Example 26, was performed in the presence and absence of the non-hydrolyzable guanine nucleotide (GTP analogue) Gpp(NH)p.

Experiment [4] deals with alpha1-adrenergic receptor. The conditions noted are these: for α1 receptor binding affinity: in words.
Experiment [5] addresses alpha2-adrenergic receptor. The experiment in a line: Alpha2-adrenergic (non-selective) binding assay ([3H]RX 781094). More on the design: species or system rat. The note with it: for α2 receptor binding affinity: in words.
Experiment [6] has as its target T4, D1 dopamine receptor (Rattus norvegicus, UniProt P18901).
T4 construct: rat striatal membranes; from tissue; host or cells: rat striatum membranes
Description: Dopamine D1 binding assay ([3H]SCH 23390). The note with it: Table III; rat striatal membranes; read-out: D1 receptor binding affinity Ki. As for the experimental part:
The final radioligand concentration was 0.5 nM.

Experiment [7] addresses 5HT1 serotonin receptor. Description: Serotonin (5HT1) binding assay.
The target in experiment [8] is T5, 5HT1A serotonin receptor (Bos taurus, UniProt F6Q2H9).
T5 construct: bovine hippocampus; from tissue; host or cells: bovine hippocampus
T5 sequence (F6Q2H9 1-422): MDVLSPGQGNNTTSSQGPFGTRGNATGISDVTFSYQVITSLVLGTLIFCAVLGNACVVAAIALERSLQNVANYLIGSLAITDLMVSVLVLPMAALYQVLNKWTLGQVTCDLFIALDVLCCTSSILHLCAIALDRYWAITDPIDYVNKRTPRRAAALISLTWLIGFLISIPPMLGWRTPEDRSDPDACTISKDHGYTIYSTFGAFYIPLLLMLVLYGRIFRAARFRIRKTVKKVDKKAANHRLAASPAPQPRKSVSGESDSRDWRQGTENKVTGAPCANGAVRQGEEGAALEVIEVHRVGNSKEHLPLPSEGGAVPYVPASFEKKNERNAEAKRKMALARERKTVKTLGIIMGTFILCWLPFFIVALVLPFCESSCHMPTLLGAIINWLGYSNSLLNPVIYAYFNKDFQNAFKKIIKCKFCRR
Description: Serotonin (5HT1A) binding assay ([3H]-8-OH-DPAT). Details: species or system bovine. The conditions noted are these: for 5HT1A serotonin receptor binding affinity: in words.

For experiment [9], the target named is beta-adrenergic receptor. Description: Beta-adrenergic (non-selective) binding assay ([3H]DHA). Details: species or system rat.
In experiment [10] the test system is 5HT3 serotonin receptor. The experiment in a line: Serotonin (5HT3) binding assay ([3H]GR65630, NIE-115 neuroblastoma cells).
Setting [11] is: Table XV, with Gpp(NH)p, read-out: D2 receptor binding Ki with Gpp(NH)p.
Setting [12] is: read-out: α1 receptor binding affinity Ki, Table III, rat forebrain membranes.
The mark [13] stands for this setting: Table III, rat cortical membranes, read-out: α2 receptor binding affinity Ki.
The mark [14] stands for this setting: read-out: 5-HT1 receptor binding affinity Ki, Table III, rat cortical membranes.
Setting [15] is: 5-HT2 receptor binding affinity Ki.
The mark [16] stands for this setting: Table III, bovine hippocampus, read-out: 5-HT1A receptor binding affinity Ki.
[17] abbreviates: Table III, rat striatal membranes, read-out: D2 receptor binding affinity Ki.
Setting [18] is: 5-HT1A receptor binding affinity Ki, Table III, bovine hippocampus.
Where [19] appears, read: read-out: Ki of reference compounds, 5HT1, Table VII.
Where [20] appears, read: Table VIII, read-out: Ki of reference compounds, 5HT1A.
[21] abbreviates: Table VI, read-out: Ki of reference compounds, beta-adrenergic.
The mark [22] stands for this setting: Table V, read-out: Ki of reference compounds, alpha2-adrenergic.
The mark [23] stands for this setting: read-out: Ki of reference compounds, 5HT3, Table X.

T2 sequence (P61169 whole entry): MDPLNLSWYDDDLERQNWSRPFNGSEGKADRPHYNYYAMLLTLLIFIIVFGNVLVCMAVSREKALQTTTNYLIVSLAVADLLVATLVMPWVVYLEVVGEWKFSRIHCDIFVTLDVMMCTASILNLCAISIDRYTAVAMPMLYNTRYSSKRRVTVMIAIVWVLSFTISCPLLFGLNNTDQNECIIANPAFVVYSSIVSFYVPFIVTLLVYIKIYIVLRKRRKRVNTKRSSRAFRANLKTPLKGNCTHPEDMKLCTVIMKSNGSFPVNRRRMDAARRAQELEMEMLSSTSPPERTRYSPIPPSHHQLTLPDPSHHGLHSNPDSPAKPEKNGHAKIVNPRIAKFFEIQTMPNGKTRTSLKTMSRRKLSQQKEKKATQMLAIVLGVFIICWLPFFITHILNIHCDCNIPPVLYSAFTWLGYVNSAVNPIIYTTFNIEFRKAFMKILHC
T3 sequence (P61169 whole entry): as above
T1 sequence (P14842 whole entry): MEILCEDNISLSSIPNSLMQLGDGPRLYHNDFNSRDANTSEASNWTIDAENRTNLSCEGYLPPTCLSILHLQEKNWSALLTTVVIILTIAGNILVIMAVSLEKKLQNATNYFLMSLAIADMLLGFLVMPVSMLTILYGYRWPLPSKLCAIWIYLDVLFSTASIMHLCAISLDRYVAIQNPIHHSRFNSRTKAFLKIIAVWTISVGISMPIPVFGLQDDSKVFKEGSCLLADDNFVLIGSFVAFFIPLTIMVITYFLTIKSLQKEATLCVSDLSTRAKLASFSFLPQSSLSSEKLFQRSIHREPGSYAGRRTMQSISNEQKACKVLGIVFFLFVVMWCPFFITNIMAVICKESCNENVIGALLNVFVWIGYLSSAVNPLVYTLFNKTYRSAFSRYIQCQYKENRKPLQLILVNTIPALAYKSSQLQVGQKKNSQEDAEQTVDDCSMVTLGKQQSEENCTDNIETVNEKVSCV
T4 sequence (P18901 whole entry): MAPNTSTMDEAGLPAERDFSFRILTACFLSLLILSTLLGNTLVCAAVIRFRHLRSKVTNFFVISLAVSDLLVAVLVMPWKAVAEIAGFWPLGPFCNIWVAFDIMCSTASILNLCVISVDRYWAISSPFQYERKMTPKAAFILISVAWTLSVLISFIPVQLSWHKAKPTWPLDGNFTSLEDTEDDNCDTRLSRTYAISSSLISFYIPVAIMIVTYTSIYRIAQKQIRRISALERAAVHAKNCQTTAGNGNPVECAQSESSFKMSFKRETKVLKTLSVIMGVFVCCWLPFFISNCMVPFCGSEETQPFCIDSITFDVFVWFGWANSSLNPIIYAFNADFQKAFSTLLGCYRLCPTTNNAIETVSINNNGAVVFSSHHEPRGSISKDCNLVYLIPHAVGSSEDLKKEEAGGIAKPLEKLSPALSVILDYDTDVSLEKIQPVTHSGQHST

`Oc1ccc2c(c1O)CC[C@@H]1[C@@H]2CCCN1CCc1cccs1` (relative stereo) [(-)-trans-33]: the “5HT2 serotonin receptor binding affinity” value in experiment [1] is “high binding affinities for the 5HT2 serotonin receptor”.
A word on the Ki: it is the dissociation constant of the complex between target and ligand, obtained from inhibition or displacement. Regarding `Oc1cccc2c1CC[C@H]1[C@@H]2CCCN1CCc1ccccc1` (relative stereo) [cis-25, Cis-7-hydroxy-4-phenethyl-1,2,3,4,4a,5,6,10b-octahydrobenzo[f]quinoline], the Ki in [2] amounted to 6.6 nM; in experiment [3] (setting [11]) it was 176 ± 213 nM; in [3] (Table XV, without Gpp(NH)p, read-out: D2 receptor binding Ki without Gpp(NH)p) it was 164 ± 51 nM; in experiment [4] (setting [12]), 16 nM; in experiment [5] (setting [13]) it was 0.27 nM. Besides, in experiment [2], the “dopamine receptor binding affinity” value is reported as “good dopamine receptor binding affinities”. Besides, in experiment [2], the “selectivity for the D2 over the D1 dopamine receptor” value (“selectivity for the D2” for short) is reported as “highly selective for the D2 dopamine receptor over the D1 dopamine receptor”. Further, in experiment [3] (Table XV), the “Ratio of +:- Gpp(NH)p” value came out at 1.07. Also, in experiment [3], the D2 agonist/antagonist assessment result was “appear to be an antagonist”. Moreover, the “effect of GTP on D2 receptor binding” value in experiment [3] is “the addition of GTP did not significantly affect receptor binding affinity”. Besides, in experiment [4], the “α1 receptor binding affinity” value was “high binding affinities for the α1 receptor”. The “α2 receptor binding affinity” value in [5] is “high binding affinities for the α2 receptor”.
Take `Oc1cccc2c1CC[C@H]1[C@H]2CCCN1CCc1ccccc1` (relative stereo) [trans-25, Trans-7-hydroxy-4-phenethyl-1,2,3,4,4a,5,6,10b-octahydrobenzo[f]quinoline]: the Ki in [2] was determined as 0.87 nM; in experiment [3], 37 ± 9 nM; in [3] (setting [11]) it was 1270 ± 1640 nM; in [4] (setting [12]), 4.5 nM; in [6], 5100 nM; in experiment [7] (setting [14]), 470 nM. The results for the Ki in experiment [1] (setting [15]) and in [5] (setting [13]) were 27 nM and 0.22 nM, respectively. In addition, the “dopamine receptor binding affinity” value in experiment [2] was “good dopamine receptor binding affinities”. The “selectivity for the D2” value in experiment [2] was “highly selective for the D2 dopamine receptor over the D1 dopamine receptor”. Further, the “Ratio of +:- Gpp(NH)p” value in [3] (Table XV) was determined as 34.7. Moreover, the D2 agonist/antagonist assessment result in [3] is listed as “appear to be agonists”. Further, in experiment [3], the “effect of GTP on D2 receptor binding” value is given as “D2 receptor binding was enhanced by the addition of GTP”. Further, the “α1 receptor binding affinity” value in experiment [4] is recorded as “high binding affinities for the α1 receptor”. Further, the “5HT2 serotonin receptor binding affinity” value in experiment [1] is “high binding affinities for the 5HT2 serotonin receptor”. The “α2 receptor binding affinity” value in experiment [5] is “high binding affinities for the α2 receptor”.
As for `Oc1cccc2c1CC[C@@H]1[C@@H]2CCCN1CCc1cccs1` (relative stereo) [trans-31], the Ki in [2] came to 1.9 nM; in [4] (setting [12]) it was 17 nM; in experiment [8] (setting [16]) it was 36 nM; in experiment [1] it was 80 nM; in experiment [5] (setting [13]), 7.2 nM. The “dopamine receptor binding affinity” value in experiment [2] is “good dopamine receptor binding affinities”. Besides, in experiment [2], the “selectivity for the D2” value is “highly selective for the D2 dopamine receptor over the D1 dopamine receptor”. The “α1 receptor binding affinity” value in [4] is recorded as “high binding affinities for the α1 receptor”. For the same compound, the “5HT1A serotonin receptor binding affinity” value in experiment [8] is recorded as “high binding affinities for the 5HT1A serotonin receptor”. For the same compound, the “5HT2 serotonin receptor binding affinity” value in experiment [1] (in words) is “high binding affinities for the 5HT2 serotonin receptor”. For the same compound, in experiment [5], the “α2 receptor binding affinity” value was “high binding affinities for the α2 receptor”.
`Oc1ccc2c(c1O)CC[C@@H]1[C@@H]2CCCN1CCc1cccs1` (relative stereo) [trans-33]: the Ki in experiment [2] was found to be 57 nM; in experiment [4] (setting [12]), 180 nM; in experiment [7] (setting [14]) it was 1800 nM; in experiment [8] (setting [16]), 190 nM; in experiment [1] it was 100 nM; in experiment [5] (setting [13]) it was 19 nM. In experiment [2], the “dopamine receptor binding affinity” value is given as “good dopamine receptor binding affinities”. Moreover, the “selectivity for the D2” value in experiment [2] is listed as “highly selective for the D2 dopamine receptor over the D1 dopamine receptor”. Further, the “5HT1A serotonin receptor binding affinity” value in experiment [8] was “high binding affinities for the 5HT1A serotonin receptor”. Besides, in [5], the “α2 receptor binding affinity” value is “high binding affinities for the α2 receptor”.
With `Oc1ccc2c(c1O)CC[C@@H]1[C@H]2CCCN1CCc1ccccc1` (single isomer, unassigned) [cis-(-)-9], in experiment [2], the affinity corresponds to a Ki of 54 nM, the “dopamine receptor binding affinity” value was “good dopamine receptor binding affinities” and the “selectivity for the D2” value is “highly selective for the D2 dopamine receptor over the D1 dopamine receptor”. Further, in experiment [4] (setting [12]), the inhibitory constant (Ki) is 180 nM. In addition, in experiment [5] (setting [13]), the Ki came out at 74 nM. In experiment [5], the “α2 receptor binding affinity” value is “high binding affinities for the α2 receptor”.
In the case of `Oc1ccc2c(c1O)CC[C@H]1[C@H]2CCCN1CCc1ccccc1` (single isomer, unassigned) [trans-(+)-9, Trans-(+)7,8-dihydroxy-4-phenethyl-1,2,3,4,4a,5,6, 10b-octahydrobenzo[f]quinoline], the Ki came to 2500 nM in [2] (setting [17]), 53 nM in experiment [4] (setting [12]), 910 nM in experiment [8] (setting [18]) and 550 nM in experiment [5] (setting [13]). The “α1 receptor binding affinity” value in experiment [4] was “high binding affinities for the α1 receptor”.
On to `Oc1cccc2c1CC[C@@H]1[C@@H]2CCCN1CCc1ccccc1` (single isomer, unassigned) [trans-(+)-25], for which the Ki in [2] (setting [17]) came to 400 nM; in experiment [4] (setting [12]), 5.5 nM; in experiment [8] (setting [18]) it was 410 nM; in [1] (setting [15]), 9.5 nM; in experiment [5] (setting [13]), 440 nM. Also, the “α1 receptor binding affinity” value in experiment [4] is “high binding affinities for the α1 receptor”. For the same compound, the “5HT2 serotonin receptor binding affinity” value in experiment [1] is listed as “high binding affinities for the 5HT2 serotonin receptor”.
In the case of `COc1ccc2[nH]cc(CCN)c2c1` [5-Methoxytryptamine, reference compound], the Ki in [7] (setting [19]) is 45.8 nM.
In the case of `CCCN(CCC)C1CCc2cccc(O)c2C1` (stereo not drawn) [8-OH-DPAT, reference compound], the Ki in experiment [8] (Ki characterizing the 5HT1A assay, assay characterization) was 2 nM; in experiment [8] (setting [20]), 1.4 nM.
Regarding `CC(C)(C)NCC(O)c1ccc(O)c(CO)c1` (stereo not drawn) [Albuterol], the Ki in [9] (setting [21]) was 2880 nM.
As for `C=CCc1ccccc1OCC(O)CNC(C)C` (stereo not drawn) [Alprenolol], the inhibition constant (Ki) in [9] (setting [21]) was determined as 3.5 nM; in experiment [9] (assay characterization, read-out: Ki characterizing the beta assay), 1.74 nM.
Take `Clc1cccc(Cl)c1N=C1NCCN1` [Clonidine, reference compound]: the Ki in experiment [5] (setting [22]) is 14 nM.
`O=C(c1ccc(F)cc1)C1CCN(CCn2c(=O)[nH]c3ccccc3c2=O)CC1` [Ketanserin, reference compound]: the Ki in experiment [8] (setting [20]) was greater than 10000 nM.
As for `CN1[C@@H]2CC[C@H]1C[C@@H](OC(=O)c1cc(Cl)cc(Cl)c1)C2` [MDL-72222], the Ki in experiment [10] (read-out: Ki characterizing the 5HT3 assay, assay characterization) was 0.3 nM; in experiment [10] (setting [23]) it was 7.2 nM.
Regarding `CCN(CC)CCNC(=O)c1cc(Cl)c(N)cc1OC` [Metoclopramide], in experiment [10] (setting [23]), the Ki is 191 nM.
For `COCCc1ccc(OCC(O)CNC(C)C)cc1` (stereo not drawn) [Metoprotol], the Ki in experiment [9] (setting [21]) was determined as 45 nM.
`Cc1ccc(N(CC2=NCCN2)c2cccc(O)c2)cc1` [Phentolamine, reference compound]: the Ki in experiment [5] (setting [22]) was found to be 1.7 nM.
Turning to `CC(C)NCC(O)COc1cccc2[nH]ccc12` (stereo not drawn) [Pindolol], in experiment [9] (setting [21]), the Ki came to 1.1 nM.
As for `c1ccc2nc(N3CCNCC3)ccc2c1` [Quipazin], the Ki in experiment [10] (setting [23]) amounted to 1.5 nM.
Take `NCCc1c[nH]c2ccc(O)cc12` [Serotonin, reference compound]: the Ki came to 2.8 nM in [7] (read-out: Ki characterizing the 5HT1 assay, assay characterization); 4.6 nM in [7] (setting [19]); 18.7 nM in [10] (setting [23]).
With `COc1cccc(OC)c1OCCNCC1COc2ccccc2O1` (stereo not drawn) [WB4101, reference compound], the Ki in experiment [4] (read-out: Ki of reference compounds, alpha1-adrenergic, Table IV) was 2.6 nM.
